Data set [1] is described as follows: Circular dichroism spectroscopy. Type of data set: physicochemical. As to conditions: 10 μM peptide, 50 mM Tris-HCl (pH 8.0), 10 mM NaCl, 4° C. The procedure: CD measurements of the peptides were carried out on an Aviv 62 DS circular dichroism spectrometer (Aviv Biomedical, Lakewood, N.J.). Peptides were dissolved in 50 mM Tris-HCl (pH 8.0) and 10 mM NaCl with a total peptide concentration of 10 μM. The wavelength dependence of molar ellipticity, [θ], was monitored at 4° C. as the average of five scans, using a five-second integration time at 1.0 nm wavelength increments. Spectra were baseline-corrected against the cuvette with buffer alone. […] Thermal stability was determined by monitoring the change in CD signal at 222 nm as a function of temperature, and thermal melts were performed in two-degree intervals with a two-minute equilibration at the desired temperature, and an integration time of 30 s. Reversibility was checked by repeated scans.

Data set [2] concerns HIV-1 UG270. Type of data set: cell-based. The procedure:
(§1) PBMC Infectivity Assay. PBMC were isolated from healthy blood donors by Ficoll-Hypaque centrifugation and then stimulated for 2-3 days with phytohemagglutinin (5 μg/ml) and interleukin-2 (100 U/ml). The inhibition assay was performed essentially as described previously (Trkola, A., T. Ketas, V. N. KewalRamani, F. Endorf, J. M. Binley, H. Katinger, J. Robinson, D. R. Littman, and J. P. Moore. 1998. Neutralization sensitivity of human immunodeficiency virus type 1 primary isolates to antibodies and CD4-based reagents is independent of co-receptor usage. J. Virol. 72:1876-1885; Trkola, A., W. A. Paxton, S. P. Monard, J. A. Hoxie, M. A. Siani, D. A. Thompson, L. Wu, C. R. Mackay, R. Horuk, and J. P. Moore. 1998. Genetic subtype-independent inhibition of human immunodeficiency virus type 1 replication by CC and CXC chemokines. J. Virol. 72:396-404).
(§2) Briefly, the virus inoculum was adjusted to 400-1,000 TCID50/ml in assay medium (RPMI 1640, 10% FCS, 100 U of interleukin-2 per ml, glutamine, and peptides), and 50 μl aliquots were incubated with serial dilutions of the peptide inhibitors (50 μl) for 1 h at 37° C. […] RBMC (4×10^5 in 100 μl of medium) were then added. The final concentration of virus in the cultures was 20-50 TCID50/well, corresponding to 100-250 TCID50/ml. Peptides, virus, and cells were then incubated for 5-7 days at 37° C., and the extent of viral replication was determined by p24 antigen ELISA of the culture supernatants. The viral inocula in 50% tissue culture infectious doses (TCID50) were 400-1000/ml.

Data set [3] deals with HIV-1 JFRL. Type of data set: cell-based. The procedure:
as §1, §2

Data set [4] deals with HIV-1 DJ258. Type of data set: cell-based. As to conditions: human PBMC, 5-7 days, p24 ELISA; second line of the isolate = second separate assay; read-out: Antiviral activity IC50, HIV-1 DJ258. The procedure:
as §1, §2

For data set [5], the system named is HIV-1 Case C 7/86. It is filed as cell-based. As to conditions: human PBMC, 5-7 days, p24 ELISA; second line of the isolate = second separate assay; read-out: Antiviral activity IC50, HIV-1 Case C 7/86. The procedure: as §1, §2
Data set [6] relates to HIV-1 NL4-3. It is filed as cell-based. The procedure: as §1, §2
Data set [7] has as its system HIV-1 BZ162. It is filed as cell-based. As to conditions: human PBMC, 5-7 days, p24 ELISA; second line of the isolate = second separate assay; read-out: Antiviral activity IC50, HIV-1 BZ162. The procedure: as §1, §2
Data set [8] has as its system HIV-1 94ZW103. Type of data set: cell-based. The procedure: as §1, §2
The subject of data set [9] is HIV-1 CM.235. It is filed as cell-based. As to conditions: human PBMC, 5-7 days, p24 ELISA; second line of the isolate = second separate assay; read-out: Antiviral activity IC50, HIV-1 CM.235. The procedure: as §1, §2
[10] abbreviates: human PBMC, 5-7 days, p24 ELISA, second line of the isolate = second separate assay, read-out: Antiviral activity IC50, HIV-1 UG270.
Setting [11] is: human PBMC, 5-7 days, p24 ELISA, second line of the isolate = second separate assay, read-out: Antiviral activity IC50, HIV-1 JFRL.
[12] abbreviates: human PBMC, 5-7 days, p24 ELISA, second line of the isolate = second separate assay, read-out: Antiviral activity IC50, HIV-1 NL4-3.
The mark [13] stands for this setting: human PBMC, 5-7 days, p24 ELISA, second line of the isolate = second separate assay, read-out: Antiviral activity IC50, HIV-1 94ZW103.

Like-named read-outs stand apart in the source and are kept apart here.

As to `CC[C@H](C)[C@H](NC(=O)[C@H](CCCCN)NC(=O)[C@@H](NC(=O)[C@H](CC(N)=O)NC(=O)[C@H](Cc1ccccc1)NC(=O)[C@H](Cc1c[nH]c2ccccc12)NC(=O)[C@H](CC(N)=O)NC(=O)[C@H](Cc1c[nH]c2ccccc12)NC(=O)[C@H](CC(C)C)NC(=O)[C@H](CO)NC(=O)[C@H](C)NC(=O)[C@H](Cc1c[nH]c2ccccc12)NC(=O)[C@H](CCCCN)NC(=O)[C@H](CC(=O)O)NC(=O)[C@H](CC(C)C)NC(=O)[C@H](CCC(=O)O)NC(=O)[C@H](CC(C)C)NC(=O)[C@H](CC(C)C)NC(=O)[C@H](CCC(=O)O)NC(=O)[C@H](CCC(N)=O)NC(=O)[C@H](CCC(=O)O)NC(=O)[C@H](CC(N)=O)NC(=O)[C@H](CCCCN)NC(=O)[C@H](CCC(=O)O)NC(=O)[C@H](CCC(N)=O)NC(=O)[C@H](CC(C)C)NC(=O)[C@H](CC(N)=O)NC(=O)[C@H](CCC(N)=O)NC(=O)[C@H](CO)NC(=O)[C@H](CCC(=O)O)NC(=O)[C@H](CCC(=O)O)NC(=O)[C@@H](NC(=O)[C@H](CC(C)C)NC(=O)[C@H](CO)NC(=O)[C@H](Cc1c[nH]cn1)NC(=O)[C@@H](NC(=O)[C@H](CC(C)C)NC(=O)[C@H](CO)NC(=O)[C@@H](NC(=O)[C@H](Cc1ccc(O)cc1)NC(=O)[C@H](CC(N)=O)NC(=O)[C@H](CC(N)=O)NC(=O)[C@@H](NC(=O)[C@H](CCC(=O)O)NC(=O)[C@H](CCCNC(=N)N)NC(=O)[C@H](CC(=O)O)NC(=O)[C@H](Cc1c[nH]c2ccccc12)NC(=O)[C@H](CCC(=O)O)NC(=O)[C@H](CCSC)NC(=O)[C@H](Cc1c[nH]c2ccccc12)NC(=O)[C@@H](NC(=O)[C@@H](NC(=O)[C@H](Cc1c[nH]cn1)NC(=O)[C@@H](N)CC(N)=O)[C@@H](C)O)[C@@H](C)O)[C@@H](C)CC)[C@@H](C)O)[C@@H](C)CC)[C@@H](C)CC)[C@@H](C)CC)C(=O)N[C@@H](CCCCN)C(=O)O` [Peptide C52F, NHTTWMEWDREINNYTSLIHSLIEESQNLQEKNEQELLELDKWASLWNWFNI-KIK], in data set [1], the “Structure in solution by circular dichroism” value is “forms an α-helical structure in solution”. The IC50 in data set [2] (setting [10]) is 68 nM; in [3] (setting [11]), 5 nM; in data set [4] it was 9 nM; in data set [5], 49 nM; in data set [6] (setting [12]), 23 nM; in [7] it was 2 nM. Moreover, the IC50 was determined as 4 nM in data set [8] (setting [13]) and 11 nM in [9].
Take `CC[C@H](C)[C@H](NC(=O)[C@H](CCCCN)NC(=O)[C@@H](NC(=O)[C@H](CC(N)=O)NC(=O)[C@H](Cc1ccccc1)NC(=O)[C@H](Cc1c[nH]c2ccccc12)NC(=O)[C@H](CC(N)=O)NC(=O)[C@H](Cc1c[nH]c2ccccc12)NC(=O)[C@H](CC(C)C)NC(=O)[C@H](CO)NC(=O)[C@H](C)NC(=O)[C@H](Cc1c[nH]c2ccccc12)NC(=O)[C@H](CCCCN)NC(=O)[C@H](CC(=O)O)NC(=O)[C@H](CC(C)C)NC(=O)[C@H](CCC(=O)O)NC(=O)[C@H](Cc1ccccc1)NC(=O)[C@H](CC(C)C)NC(=O)[C@H](CCC(=O)O)NC(=O)[C@H](CCC(N)=O)NC(=O)[C@H](CCC(=O)O)NC(=O)[C@H](C)NC(=O)[C@H](CCCCN)NC(=O)[C@H](CCC(=O)O)NC(=O)[C@H](CCC(N)=O)NC(=O)[C@H](CC(C)C)NC(=O)[C@H](CC(N)=O)NC(=O)[C@H](CCC(N)=O)NC(=O)[C@H](CO)NC(=O)[C@H](CCC(=O)O)NC(=O)[C@H](CCC(=O)O)NC(=O)[C@H](Cc1ccccc1)NC(=O)[C@H](CC(C)C)NC(=O)[C@H](CO)NC(=O)[C@H](Cc1c[nH]cn1)NC(=O)[C@@H](NC(=O)[C@H](CC(C)C)NC(=O)[C@H](CO)NC(=O)[C@@H](NC(=O)[C@H](Cc1ccc(O)cc1)NC(=O)[C@H](CC(N)=O)NC(=O)[C@H](CC(N)=O)NC(=O)[C@@H](NC(=O)[C@H](CCC(=O)O)NC(=O)[C@H](CCCNC(=N)N)NC(=O)[C@H](CC(=O)O)NC(=O)[C@H](Cc1c[nH]c2ccccc12)NC(=O)[C@H](CCC(=O)O)NC(=O)[C@H](CCSC)NC(=O)[C@H](Cc1c[nH]c2ccccc12)NC(=O)[C@@H](NC(=O)[C@@H](NC(=O)[C@H](Cc1c[nH]cn1)NC(=O)[C@@H](N)CC(N)=O)[C@@H](C)O)[C@@H](C)O)[C@@H](C)CC)[C@@H](C)O)[C@@H](C)CC)[C@@H](C)CC)C(=O)N[C@@H](CCCCN)C(=O)O` [Peptide C52L, NHTTWMEWDREINNYTSLIHSLFEESQNLQEKAEQELFELDKWASLWNWFNI-KIK]: the “Structure in solution by circular dichroism” value in data set [1] was “forms an α-helical structure in solution”. The IC50 came to 61 nM in data set [2] (setting [10]); 6 nM in data set [3] (setting [11]); 11 nM in [4]; 17 nM in data set [5]; 20 nM in data set [6] (setting [12]); 3 nM in [7]. The IC50 in data set [8] (setting [13]) was 3 nM; in [9] it was 12 nM.
With Enfuvirtide, the IC50 in data set [2] (UG270) was 139 nM; in [3] (JFRL), 10 nM; in data set [6] (NL4-3) it was 44 nM; in data set [8] (94ZW103), 18 nM.

The values above are taken from patent US20070134221A1, “Stabilizing peptides” (priority 2003, published 2007).
